From ChEMBL document CHEMBL4609992, “Discovery of novel small molecule induced selective degradation of the bromodomain and extra-terminal (BET) bromodomain protein BRD4 and BRD2 with cellular potencies” (Bioorg Med Chem, 2020)
Calls of active or inactive are those of the source. The calls are words filed in the database; no cut-off is given here.

Columns and labels:
[1] = test system: CCRF-CEM; assay: Growth inhibition of human CCRF-CEM cells assessed as cell growth inhibition incubated for 48 hrs by sulforhodamine B assay; assay type: functional
[2] = test system: EKVX; assay: Growth inhibition of human EKVX cells assessed as cell growth inhibition incubated for 48 hrs by sulforhodamine B assay; assay type: functional
[3] = test system: MDA-MB-468; assay: Growth inhibition of human MDA-MB-468 cells assessed as cell growth inhibition incubated for 48 hrs by sulforhodamine B assay; assay type: functional; conditions: MDA-MB-468, 48 h
[4] = test system: MCF7; assay: Growth inhibition of human MCF7 cells assessed as cell growth inhibition incubated for 48 hrs by sulforhodamine B assay; assay type: functional; conditions: MCF7, 48 h
[5] = test system: HCC 2998; assay: Growth inhibition of human HCC2998 cells assessed as cell growth inhibition incubated for 48 hrs by sulforhodamine B assay; assay type: functional; conditions: HCC 2998, 48 h
[6] = test system: VCaP; assay: Antiproliferative activity against human VCaP cells assessed as reduction in cell viability; assay type: functional, cell-based
[7] = test system: HCT-116; assay: Growth inhibition of human HCT116 cells assessed as cell growth inhibition incubated for 48 hrs by sulforhodamine B assay; assay type: functional; conditions: HCT-116, 48 h
[8] = test system: MV4-11; assay: Induction of apoptosis in human MV4-11 cells at < 30 nM measured after 48 hrs by Annexin V-FITC/propidium iodide staining based FACScan flow cytometry relative to control; assay type: functional
[9] = test system: NCI-H23; assay: Growth inhibition of human NCI-H23 cells assessed as cell growth inhibition incubated for 48 hrs by sulforhodamine B assay; assay type: functional; conditions: NCI-H23, 48 h
[10] = test system: COLO 205; assay: Antiproliferative activity against human COLO205 cells assessed as reduction in cell viability; assay type: functional, cell-based
[11] = test system: LNCaP; assay: Antiproliferative activity against human LNCAP cells assessed as reduction in cell viability; assay type: functional, cell-based
[12] = test system: HL-60(TB); assay: Growth inhibition of human HL-60(TB) cells assessed as cell growth inhibition incubated for 48 hrs by sulforhodamine B assay; assay type: functional; conditions: HL-60, 48 h
[13] = test system: NCI-H322M; assay: Growth inhibition of human NCI-H322M cells assessed as cell growth inhibition incubated for 48 hrs by sulforhodamine B assay; assay type: functional
[14] = test system: TT; assay: Antiproliferative activity against human TT cells assessed as reduction in cell viability; assay type: functional, cell-based
[15] = test system: OVCAR-8; assay: Growth inhibition of human OVCAR8 cells assessed as cell growth inhibition incubated for 48 hrs by sulforhodamine B assay; assay type: functional; conditions: OVCAR-8, 48 h
[16] = test system: MV4-11; assay: Induction of apoptosis in human MV4-11 cells at < 100 nM measured after 24 hrs by Annexin V-FITC/propidium iodide staining based FACScan flow cytometry relative to control; assay type: functional
[17] = test system: A-375; assay: Antiproliferative activity against human A375 cells assessed as reduction in cell viability; assay type: functional, cell-based
[18] = biological target: T1, Protein cereblon/Bromodomain-containing protein 4/Cullin-4A (Homo sapiens) (UniProt O60885+Q96SW2+Q13619); assay: Protac activity at cereblon/cullin4A/BRD4 in human MV4-11 cells assessed as induction of BRD4 degradation at 1 to 500 nM measured after 18 hrs by Western blot analysis; assay type: cell-based
[19] = test system: HOP-62; assay: Growth inhibition of human HOP62 cells assessed as cell growth inhibition incubated for 48 hrs by sulforhodamine B assay; assay type: functional; conditions: HOP-62, 48 h
[20] = test system: SK-MEL-5; assay: Growth inhibition of human SK-MEL-5 cells assessed as cell growth inhibition incubated for 48 hrs by sulforhodamine B assay; assay type: functional; conditions: SK-MEL-5, 48 h
[21] = test system: SF-268; assay: Growth inhibition of human SF268 cells assessed as cell growth inhibition incubated for 48 hrs by sulforhodamine B assay; assay type: functional; conditions: SF-268, 48 h
[22] = test system: PC-3; assay: Growth inhibition of human PC3 cells assessed as cell growth inhibition incubated for 48 hrs by sulforhodamine B assay; assay type: functional; conditions: PC-3, 48 h
[23] = test system: MOLM-13; assay: Antiproliferative activity against human MOLM13 cells assessed as reduction in cell viability measured after 48 hrs by CellTiter-Glo assay; assay type: functional, cell-based; conditions: MOLM-13, 48 h
[24] = test system: LNCaP-Clone-FGC; assay: Antiproliferative activity against human LNCaP-FGC cells assessed as reduction in cell viability; assay type: functional, cell-based
[25] = test system: RXF 393; assay: Growth inhibition of human RXF393 cells assessed as cell growth inhibition incubated for 48 hrs by sulforhodamine B assay; assay type: functional; conditions: RXF 393, 48 h
[26] = test system: OVCAR-3; assay: Growth inhibition of human OVCAR3 cells assessed as cell growth inhibition incubated for 48 hrs by sulforhodamine B assay; assay type: functional; conditions: OVCAR-3, 48 h
[27] = test system: Malme-3M; assay: Growth inhibition of human MALME-3M cells assessed as cell growth inhibition incubated for 48 hrs by sulforhodamine B assay; assay type: functional
[28] = test system: LOX IMVI; assay: Growth inhibition of human LOXIMVI cells assessed as cell growth inhibition incubated for 48 hrs by sulforhodamine B assay; assay type: functional
[29] = test system: SK-OV-3; assay: Growth inhibition of human SKOV3 cells assessed as cell growth inhibition incubated for 48 hrs by sulforhodamine B assay; assay type: functional; conditions: SK-OV-3, 48 h
[30] = test system: HT-29; assay: Growth inhibition of human HT-29 cells assessed as cell growth inhibition incubated for 48 hrs by sulforhodamine B assay; assay type: functional; conditions: HT-29, 48 h
[31] = test system: Hs-578T; assay: Growth inhibition of human Hs 578T cells assessed as cell growth inhibition incubated for 48 hrs by sulforhodamine B assay; assay type: functional
[32] = biological target: T1, Protein cereblon/Bromodomain-containing protein 4/Cullin-4A (Homo sapiens); assay: Protac activity at cereblon/cullin4A/BRD4 in human MV4-11 cells assessed as induction of BRD4 degradation at 50 nM measured after 18 hrs by Western blot analysis relative to control; assay type: cell-based
[33] = test system: DU-145; assay: Growth inhibition of human DU145 cells assessed as cell growth inhibition incubated for 48 hrs by sulforhodamine B assay; assay type: functional; conditions: DU-145, 48 h
[34] = test system: RPMI-8226; assay: Growth inhibition of human RPMI8226 cells assessed as cell growth inhibition incubated for 48 hrs by sulforhodamine B assay; assay type: functional; conditions: RPMI-8226, 48 h
[35] = test system: CWR22R; assay: Antiproliferative activity against human 22Rv1 cells assessed as reduction in cell viability; assay type: functional, cell-based
[36] = test system: MV4-11; assay: Induction of apoptosis in human MV4-11 cells measured after 24 hrs by Annexin V-FITC/propidium iodide staining based FACScan flow cytometry; assay type: functional, cell-based
[37] = test system: NCI-H1975; assay: Antiproliferative activity against human NCI-H1975 cells assessed as reduction in cell viability; assay type: functional, cell-based
[38] = test system: RPMI-8226; assay: Antiproliferative activity against human RPMI8226 cells assessed as reduction in cell viability; assay type: functional, cell-based

## COc1ccccc1S(=O)(=O)Nc1ccc2c3c(cc(CCC(=O)NCCCCNc4cccc5c4C(=O)N(C4CCC(=O)NC4=O)C5=O)cc13)C(=O)N2C (stereo not drawn)
[1]
  GI50: 0.028 µM
[2]
  GI50: 7.48 µM
[3]
  GI50: 0.02 µM
[4]
  GI50: 0.303 µM
[5]
  GI50: 0.316 µM
[6]
  IC50: 0.25 µM
[7]
  GI50: 3.66 µM
[8]
  Activity: 86.86%
[9]
  GI50: 37.5 µM
[10]
  IC50: 0.156 µM
[11]
  IC50: 0.62 µM
[12]
  GI50: 0.022 µM
[13]
  GI50: 0.355 µM
[14]
  IC50: 0.0374 µM
[15]
  GI50: 0.36 µM
[16]
  Activity: 80%
[17]
  IC50: 2.44 µM
[18]
  Activity: Active
[19]
  GI50: 0.416 µM
[20]
  GI50: 1.12 µM
[21]
  GI50: 0.366 µM
[22]
  GI50: 0.248 µM
[23]
  IC50: 0.052 µM
[24]
  IC50: 0.909 µM
[25]
  GI50: 0.864 µM
[26]
  GI50: 1.83 µM
[27]
  GI50: 0.161 µM
[28]
  GI50: 3.97 µM
[29]
  GI50: 1.63 µM
[30]
  GI50: 3.77 µM
[31]
  GI50: 0.186 µM
[32]
  Activity: 100%
[33]
  GI50: 5.91 µM
[34]
  GI50: 0.683 µM
[35]
  IC50: 0.081 µM
[36]
  Activity: Dose-dependent effect
[37]
  IC50: 0.459 µM
[38]
  IC50: 0.44 µM
